# Article PMC5015074, “Enhancing Endosomal Escape for Intracellular Delivery of Macromolecular Biologic Therapeutics” (Scientific Reports, 2016)
# Legend:
# [1] = system: GFPβ1-10 expressing H1299 cells; assay: live cell split-GFP fluorescence complementation transduction assay (FACS); type: cell-based, human; conditions: GFPβ1-10 H1299 cells
# Method: (§1) All transduction experiments were performed in 48-well plates. An optimized protocol was established. First, 15,000 or 20,000 cells were plated in each well. Next day, the indicated peptides were pipetted into microcentrifuge tubes. Transduction buffer (60% OptiMEM and 40% PBS) was added to peptide (100 μl total volume), directly mixed by pipetting up and down five times and then immediately transferred to cells. […] All cells were trypsinized and collected in 250 μl OptiMEM without phenol red and analyzed by FACS (GFP, FSC/SSC). 4,000 viable cells were analyzed per sample. Data is presented as fold change in fluorescence compared to non-treated cells.
# [2] = system: GFPβ1-10 expressing H1299 cells
# Method: (§2) Cell morphology was determined by FACS analysis of FSC and SSC. Gates were set manually for viable cells using untreated control cells as reference and the fraction of viable cells compared to non-viable cells was determined for each sample. Data are presented as the relative difference compared to non-treated control cells. Viable cells per sample were determined by measuring number of viable cells that were analyzed per second by FACS. Gates for viable cells were set manually using untreated control cells as reference. Data are presented as the relative difference compared to untreated control cells.
# [3] = system: GFPβ1-10 expressing HaCaT keratinocytes; assay: split-GFP complementation transduction assay (FACS); type: cell-based, human; conditions: dose-dependent analysis by FACS, EED peptide compared to parental GFPβ11-(S-S)-TAT, triplicate samples
# Method: as §1
# [4] = system: GFPβ1-10 expressing MDA-MB-231 breast carcinoma cells; assay: as above; type: cell-based, human
# Method: as §1
# [5] = system: GFPβ1-10 expressing MCF7 breast carcinoma cells; assay: as above; type: cell-based, human; conditions: dose-dependent analysis by FACS, EED peptide compared to parental GFPβ11-(S-S)-TAT, triplicate samples
# Method: as §1
# [6] = system: GFPβ1-10 expressing MDA-MB-231 breast carcinoma cells
# Method: as §2
# [7] = system: GFPβ1-10 expressing MCF7 breast carcinoma cells
# Method: as §2
# [8] = system: GFPβ1-10 expressing HaCaT keratinocytes
# Method: as §2
# H1299 G1-10 cells = assay: macropinocytosis assay (70-kDa neutral dextran-Texas Red uptake, FACS); type: cell-based, human; conditions: 10 μM peptide, 70 min, 70-kDa neutral dextran-Texas Red 100 μg/mL, 37°, triplicate
# Method: 3,000 H1299 G1-10 cells were plated in a 48-well plate and treated with 10 μM TAT-P6-GG, TAT-P6-GWWG or TAT-P6-GFWFG peptides for 70 min in the presence of 70-kDa neutral dextran-Texas Red (100 μg/mL; Invitrogen) at 37° in triplicate. Cells were washed, trypsinized and analyzed by FACS (>2,000 cells per sample).
molecule,measurement,setting,value
GFPβ11-(S-S)-TAT-P6-GWGGWG [compound 8],"enhancement of GFP fluorescence compared to the -GWWG motif, in words",[1],decreased the enhancement significantly
same,Cell Viability 15 uM,[2],0.96
same,Cell Viability 30 uM,[2],0.98
same,Cell Viability 45 uM,[2],0.97
GFPβ11-(S-S)-TAT-P6-GFWFG [compound 6],increase in GFP fluorescence compared to the parental GFPβ11-(S-S)-TAT peptide,[1]; stated in text for Fig. 4b-e,five-fold
same,"GFP complementation fluorescence / endosomal escape, in words",[3],significantly enhanced endosomal escape
same,"GFP complementation fluorescence / endosomal escape, in words","[4]; MDA-MB-231, dose-dependent analysis by FACS, EED peptide compared to parental GFPβ11-(S-S)-TAT, triplicate samples",significantly enhanced endosomal escape
same,"GFP complementation fluorescence / endosomal escape, in words",[5],significantly enhanced endosomal escape
same,"cytotoxicity, in words",[6],non-cytotoxic
same,Cell Viability 15 uM,[2],0.97
same,Cell Viability 30 uM,[2],0.97
same,Cell Viability 45 uM,[2],0.90
same,"cytotoxicity, in words",[7],non-cytotoxic
same,"cytotoxicity, in words",[8],non-cytotoxic
TAT-P6-GFWFG [TAT peptide with PEG6-GFWFG endosomal escape domain],"stimulation of macropinocytosis, in words",H1299 G1-10 cells,stimulate macropinocytosis to a similar extent
"CCN(c1nc(N)c(C(=O)NC(=N)N)nc1Cl)C(C)C [EIPA, reference compound]","effect of macropinocytosis inhibitor on GFP fluorescence from GFPβ11-TAT, in words","[4]; MDA-MB-231c#G3 pre-treated with 80 μM EIPA, transduced with 60 μM GFPβ11-TAT with 80 μM EIPA for 40 or 80 min, FACS, triplicate",reduced GFP fluorescence to near background levels
"CCN(CC)CCCC(C)Nc1ccnc2cc(Cl)ccc12 (centres unmarked) [Chloroquine, reference compound]",increase in GFP fluorescence of GFPβ11-(S-S)-TAT treated cells on addition of Chloroquine,[1]; low concentration of GFPβ11-(S-S)-TAT peptide plus 100 μM Chloroquine,~ 4 fold
GFPβ11-(S-S)-TAT-P6-GWWWG [compound 9],Cell Viability 15 uM,[2],0.96
same,Cell Viability 30 uM,[2],0.42
same,Cell Viability 45 uM,[2],0.18
